Here are results for 11 compounds from ChEMBL document CHEMBL1201862, “PubChem BioAssay data set” (2004).

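Briefly, cells in 96-well plates were exposed to five compound concentrations for 48 h, and endpoints were estimated by linear interpolation. GI50 is the concentration that inhibits growth by half.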 The source made the active and inactive calls. No stated cut-off is given here; in the data, active = GI50 up to about 1.1 µM and inactive = higher.

Some test systems named below: A549; ACHN; BT-549; HOP-62; HOP-92; HT-29; IGROV-1; LOX IMVI; M14; MCF7; NCI-H23; NCI-H522; RPMI-8226; SF-268; SK-MEL-28; SK-MEL-5; T47D; TK-10; HL-60.
What all share (assay): DTP human tumour cell line panel, 48 h

As usually defined, the GI50 is the concentration giving 50% growth inhibition. For the compound `COc1ccc(NCc2c(O)ccc3ccccc23)cc1`, the GI50 with A549 is 61.4 µM (inactive); with ACHN, 13.4 µM (inactive); in the experiment with BT-549, 18.6 µM (inactive); in the experiment on HOP-62 it was 68.2 µM (inactive); in the experiment on HOP-92, 16.1 µM (inactive); in the experiment on HT-29 it was 21.6 µM (inactive). For the same compound, the GI50 in the experiment with IGROV-1 is 20.4 µM (inactive); in the experiment with LOX IMVI, 15.9 µM (inactive); in the experiment with M14, 14 µM (inactive); with MCF7, 28.8 µM (inactive); in the experiment with NCI-H23, 36.3 µM (inactive); with NCI-H522, 14.8 µM (inactive). Further, the GI50 in the experiment on RPMI-8226 was 24.7 µM (inactive); with SF-268 it was 19.9 µM (inactive); in the experiment on SK-MEL-28, 27.4 µM (inactive); in the experiment with SK-MEL-5, 12.4 µM (inactive); in the experiment on T47D it was 17.4 µM (inactive); in the experiment on TK-10 it was 17.9 µM (inactive).

Turning to `Oc1ncc(Cl)c(O)n1`, the GI50 in the experiment on A549, in the experiment with ACHN, with BT-549, in the experiment on HL-60, in the experiment on HOP-92 and in the experiment with HT-29 was > 100 µM (inactive) throughout. Besides, the GI50 in the experiment with IGROV-1, in the experiment with LOX IMVI, in the experiment with M14, with MCF7, in the experiment with NCI-H23 and with NCI-H522 was > 100 µM (inactive) in each case. Further, the GI50 in the experiment on RPMI-8226, with SF-268, in the experiment on SK-MEL-28, in the experiment on SK-MEL-5, with T47D and with TK-10 was > 100 µM (inactive) throughout.

As to `CCC12CCCN3CCc4c(n(c5ccccc45)C(O)(C(=O)OC)C1)C32` (stereo not drawn), the GI50 in the experiment with A549, in the experiment with ACHN, in the experiment with BT-549, in the experiment on HL-60, in the experiment with HOP-92 and in the experiment on HT-29 was > 100 µM (inactive) throughout. Further, the GI50 in the experiment on IGROV-1, in the experiment on LOX IMVI, with M14, in the experiment with MCF7, in the experiment with NCI-H23 and with NCI-H522 was > 100 µM (inactive) in each case. For the same compound, the GI50 in the experiment with RPMI-8226, in the experiment on SF-268, in the experiment with SK-MEL-28, in the experiment with SK-MEL-5, in the experiment with T47D and in the experiment on TK-10 was > 100 µM (inactive) in each case.

As for `CC1=C(C(N)=O)C(c2ccncc2)C(C#N)=C2SCC(=O)N12` (stereo not drawn), the GI50 in the experiment on A549, in the experiment on ACHN, in the experiment on BT-549, with HL-60, in the experiment with HOP-62 and with HOP-92 was > 100 µM (inactive) each time. Also, the GI50 in the experiment with HT-29, in the experiment with IGROV-1, in the experiment with M14, in the experiment on MCF7, in the experiment on NCI-H23 and in the experiment on NCI-H522 was > 100 µM (inactive) each time. For the same compound, the GI50 in the experiment with RPMI-8226, in the experiment on SF-268, in the experiment on SK-MEL-28, in the experiment on SK-MEL-5 and in the experiment on T47D was > 100 µM (inactive) each time.

With `COC(=O)c1cc(-c2ccc(-c3ccc(O)cc3)cc2)cc(-c2ccc(-c3ccc(O)cc3)cc2)c1`, the GI50 is 8.45 µM (inactive) in the experiment with A549; 8.71 µM (inactive) in the experiment on ACHN; 13.7 µM (inactive) in the experiment on BT-549; 12.1 µM (inactive) in the experiment with HOP-62; 6.62 µM (inactive) in the experiment with HOP-92; 6.44 µM (inactive) in the experiment with IGROV-1. Besides, the GI50 in the experiment with LOX IMVI was 6.14 µM (inactive); in the experiment on M14, 13.4 µM (inactive); in the experiment with MCF7, 4.48 µM (inactive); in the experiment on NCI-H23, 8.51 µM (inactive); in the experiment with NCI-H522 it was 2.62 µM (inactive); in the experiment with RPMI-8226, 10.7 µM (inactive). In addition, the GI50 with SF-268 is 4.04 µM (inactive); with SK-MEL-28, 13 µM (inactive); in the experiment on SK-MEL-5, 17 µM (inactive); with T47D, 4.61 µM (inactive); in the experiment with TK-10, 13.6 µM (inactive).

For the compound `CCOC(=O)c1c[nH]cc1-c1cn(S(=O)(=O)c2ccccc2)cc1C`, the GI50 in the experiment with A549 was 30.5 µM (inactive); with ACHN, 18.9 µM (inactive); with BT-549, 27.1 µM (inactive); with HL-60, 26.2 µM (inactive); in the experiment on HOP-62 it was 31.5 µM (inactive); in the experiment with HOP-92, 26 µM (inactive). In addition, the GI50 is 21.2 µM (inactive) with HT-29; 26.9 µM (inactive) with IGROV-1; 23.4 µM (inactive) in the experiment on LOX IMVI; 21.7 µM (inactive) in the experiment with M14; 29 µM (inactive) with MCF7; 24.6 µM (inactive) in the experiment on NCI-H23. In addition, the GI50 was 15.6 µM (inactive) in the experiment with NCI-H522; 25.9 µM (inactive) with SF-268; 19.8 µM (inactive) in the experiment with SK-MEL-28; > 10 µM (inactive) with SK-MEL-5; 18.2 µM (inactive) in the experiment with T47D; 35.6 µM (inactive) in the experiment on TK-10.

Turning to `COC(=O)C1(Cc2ccc3c(c2)CCC3)Cc2ccccc2C1=O` (stereo not drawn), the GI50 is 21.1 µM (inactive) in the experiment on A549; 33.3 µM (inactive) in the experiment with ACHN; 11.5 µM (inactive) in the experiment on BT-549; 3.12 µM (inactive) with HL-60; 14.2 µM (inactive) with HOP-62; 5.46 µM (inactive) in the experiment on HT-29. The GI50 in the experiment with IGROV-1 was 14 µM (inactive); with LOX IMVI it was 10.5 µM (inactive); with M14 it was 9.53 µM (inactive); with MCF7 it was 7.06 µM (inactive); with NCI-H23, 19 µM (inactive); in the experiment with NCI-H522 it was 7.66 µM (inactive). Further, the GI50 in the experiment on RPMI-8226 was 9.91 µM (inactive); in the experiment on SF-268 it was 22.1 µM (inactive); in the experiment on SK-MEL-28, 7.14 µM (inactive); in the experiment on SK-MEL-5, 4.3 µM (inactive); in the experiment with T47D, 19.3 µM (inactive); with TK-10, 12.3 µM (inactive).

Regarding `CCCCCCCC/C=C\CCCCCCCC(=O)OC[C@]1(CO)CCC(=O)O1`, the GI50 with A549, with ACHN, with BT-549, in the experiment with HOP-62, in the experiment on HOP-92 and with HT-29 was > 100 µM (inactive) throughout. Also, the GI50 in the experiment on IGROV-1, with LOX IMVI, in the experiment on M14, in the experiment on MCF7, with NCI-H23 and in the experiment on NCI-H522 was > 100 µM (inactive) in each case. Moreover, the GI50 with SF-268, in the experiment with SK-MEL-28, in the experiment on SK-MEL-5, in the experiment with T47D and in the experiment on TK-10 was > 100 µM (inactive) throughout.

For `C/C=C(\C)c1cc(=O)c2c(C)cc3c(c2o1)C(OC)(OC(C)=O)c1c(O)c(C2CC(C)(N(C)C)C(OC(C)=O)C(C)O2)cc(C2CC(N(C)C)C(OC(C)=O)C(C)O2)c1C3=O` (stereo not drawn), the concentration for 50% growth inhibition (GI50) was 0.514 µM (active) in the experiment with A549; 0.202 µM (active) in the experiment with ACHN; 2.27 µM (inactive) with BT-549; 0.621 µM (active) in the experiment with HOP-62; 1.28 µM (inactive) with HOP-92; 0.489 µM (active) with HT-29. For the same compound, the GI50 is 1.61 µM (inactive) in the experiment with IGROV-1; 0.512 µM (active) with LOX IMVI; 1.24 µM (inactive) in the experiment with M14; 1.64 µM (inactive) in the experiment on MCF7; 1.02 µM (active) in the experiment on NCI-H23; 0.254 µM (active) in the experiment with NCI-H522. Also, the GI50 in the experiment with SF-268 is 0.27 µM (active); in the experiment with SK-MEL-28, 3.77 µM (inactive); with SK-MEL-5 it was 1.51 µM (inactive); in the experiment with T47D, 3.74 µM (inactive); in the experiment on TK-10, 1.45 µM (inactive).

In the case of `Cc1oc2c(c1C)S(=O)(=O)C(C#N)=C(c1ccccc1)N2`, the GI50 in the experiment on A549, in the experiment on ACHN, with BT-549, in the experiment on HOP-62, with HOP-92 and in the experiment with HT-29 was > 100 µM (inactive) throughout. For the same compound, the GI50 in the experiment with IGROV-1, in the experiment with LOX IMVI, with M14, with MCF7, with NCI-H23 and with NCI-H522 was > 100 µM (inactive) in each case. Also, the GI50 with RPMI-8226, with SF-268, in the experiment with SK-MEL-28, in the experiment with SK-MEL-5, with T47D and in the experiment on TK-10 was > 100 µM (inactive) in each case.

Consider `CCOC(=O)CC1(O)CCCCC1(Sc1ccc(C)cc1)Sc1ccc(C)cc1` (stereo not drawn), for which the GI50 was 33.8 µM (inactive) in the experiment with A549; 51.5 µM (inactive) in the experiment with ACHN; 83 µM (inactive) in the experiment on BT-549; 24.7 µM (inactive) in the experiment on HL-60; 54.2 µM (inactive) in the experiment on HOP-62; 29.6 µM (inactive) in the experiment with HOP-92. For the same compound, the GI50 in the experiment on HT-29 is 32.2 µM (inactive); with LOX IMVI, 36.8 µM (inactive); in the experiment on M14, 41.4 µM (inactive); in the experiment on MCF7, 31.6 µM (inactive); with NCI-H23, 49.4 µM (inactive); in the experiment on NCI-H522, 18.7 µM (inactive). For the same compound, the GI50 in the experiment with SF-268 was 31.7 µM (inactive); in the experiment on SK-MEL-28, 39.2 µM (inactive); with SK-MEL-5, 29.9 µM (inactive); in the experiment with T47D, 19.4 µM (inactive); in the experiment on TK-10, > 100 µM (inactive).
